Measurements as given in patent publication US20220257571A1, “INHIBITOR OF MAP KINASE INTERACTING SERINE/THREONINE KINASE 1 (MNK1) AND MAP KINASE INTERACTING SERINE/THREONINE KINASE 2 (MNK2), CANCER THERAPY AND THERAPEUTIC COMBINATIONS” (FUNPACIÓ HOSPITAL UNIVERSITARI VALL D'HEBRON - INSTITUT DE …, priority 2019, published 2022).

Columns and labels:
[1] = molecular target: T1, MNK1/2; assay: radiometric kinase assay (33PanQinase Activity Assay), IC50; type: biochemical; settings: MNK1/2, isoform not stated; read-out: enzymatic IC50
T1 construct: rows headed: enzymatic IC50
Procedure: (§1) The kinase activity of the compound was measured by a radiometric kinase assay (^33PanQinase® Activity Assay) carried out by Proqinase (www.proqinase.com).
(§2) The assays were carried out in 96-well FlashPlates™ by PerkinElmer (Boston, Mass., USA) with a reaction volume of 50 μl. The reaction cocktail was pipetted in 4 steps: (1) 20 μl buffer, (2) 5 μl ATP solution (in H2O), (3) 5 μl compound (in 10% DMSO) and (4) 20 μl enzyme/substrate mixture. Lastly, the cocktail contained 70 mM HEPES-NaOH pH 7.5, 3 mM MgCl2, 3 mM MnCl2, 3 μM sodium orthovanadate, 1.2 mM DTT, 50 μg/ml PEG20000, ATP (1 μM for MNK1 and 0.3 μM for MNK2), [γ-^33P]-ATP (approx. […] per well), protein kinase (variable amounts depending on the batch) and substrate (2 μg/50 μl).
(§3) Reaction cocktails were incubated at 30° C. for 60 minutes. The reaction was stopped with 50 μl of 2% H3PO4 (v/v), the plates were sucked, they were washed twice with 200 μl of 0.9% NaCl (w/v) and the incorporation of ^33Pi (MicroBeta microplate scintillation counter, Wallac) was determined. All assays were performed with a Beckman Coulter/SAGIAN™ system.
(§4) The residual activity (in %) for each well of a particular plate was calculated using the following formula (wherein high control is the kinase activity in absence of an inhibitor and low control is the radioactivity value of the substrate in absence of a kinase).

[2] = tested on: MNK1/2; assay: as above; type: biochemical
Procedure: as §1, §2, §3, §4

[3] = tested on: 22Rv1 castration resistant prostate cancer cells; assay: cell viability of 22Rv1 cells, EB1 with Enzalutamide; type: cell-based; settings: 22Rv1, co-treatment with Enzalutamide, 72 h
Procedure: Cell viability under combined inhibition of AR and eIF4E phosphorylation was assayed. […] (B) Number of viable cells after 72 h treatment with pairwise combinations reported as percentage relative to control. (E) Cell viability data presented as a grid displaying the percentage of affected cells by each pairwise combination of drug doses. (C) Drug combinations with the strongest inhibition in cell viability (bars; mean±SEM; n=3. *p<0.05, **p<0.01 two-tailed Student's test). (F) Combination index (CI) presented as a grid for each pairwise combination of drug doses calculated by the Chou-Talalay method at non-constant ratio. (D and I) Fraction affected vs. combination index (CI) plots.

[4] = molecular target: T2, MNK2 (Homo sapiens, UniProt Q9HBH9); assay: radiometric kinase assay (33PanQinase Activity Assay), MNK2; type: biochemical; settings: after treatment with 10 μM compound; ATP 0.3 μM; read-out: residual activity of MNK2
T2 construct: purchased Proqinase
T2 sequence (Q9HBH9 whole entry): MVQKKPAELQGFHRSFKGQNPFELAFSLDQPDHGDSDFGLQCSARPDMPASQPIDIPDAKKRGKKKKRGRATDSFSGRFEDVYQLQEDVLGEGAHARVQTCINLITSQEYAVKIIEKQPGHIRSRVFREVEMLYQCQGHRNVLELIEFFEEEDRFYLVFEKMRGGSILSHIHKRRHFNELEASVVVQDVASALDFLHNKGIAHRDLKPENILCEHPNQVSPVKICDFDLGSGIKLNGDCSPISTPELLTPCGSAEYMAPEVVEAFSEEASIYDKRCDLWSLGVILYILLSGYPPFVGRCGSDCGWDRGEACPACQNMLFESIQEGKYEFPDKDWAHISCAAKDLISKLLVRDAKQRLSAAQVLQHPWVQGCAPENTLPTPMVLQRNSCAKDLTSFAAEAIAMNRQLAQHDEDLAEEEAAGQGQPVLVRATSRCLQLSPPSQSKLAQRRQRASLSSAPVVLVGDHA
Procedure: The assays were carried out in 96-well FlashPlates™ by PerkinElmer (Boston, Mass., USA) with a reaction volume of 50 μl. The reaction cocktail was pipetted in 4 steps: (1) 20 μl buffer, (2) 5 μl ATP solution (in H2O), (3) 5 μl compound (in 10% DMSO) and (4) 20 μl enzyme/substrate mixture. […]
Reaction cocktails were incubated at 30° C. for 60 minutes. The reaction was stopped with 50 μl of 2% H3PO4 (v/v), the plates were sucked, they were washed twice with 200 μl of 0.9% NaCl (w/v) and the incorporation of ^33Pi (MicroBeta microplate scintillation counter, Wallac) was determined. […]
To screen compounds, the residual activity of both kinases was analysed after treatment with 10 μM of the compounds.

[5] = tested on: eIF4E phosphorylation, AR and AR-V7 in 22Rv1 cells; assay: western blot analysis in 22Rv1 cells; type: cell-based; settings: for levels of AR, AR-V7 and eIF4E phosphorylation: 22Rv1, 72 h
[6] = tested on: eIF4E phosphorylation in MDA-MB-231 cells; assay: inhibition of eIF4E phosphorylation by Western Blot in MDA-MB-231 cells; type: cell-based, human
Procedure: (§5) Commercially available MDA-MB-231, MDA-MB-468, MCF7 and A375M, IMR90 (IMR-90 (ATCC® CCL-186TH) cells were grown at 37° C. and 5% CO2 in DMEM medium (Dulbecco's Modified Eagle Medium, 4.5 g/I glucose; 30 mg/I L-Glutamine (Gibco)) supplemented with 10% foetal bovine serum, 100 U/ml penicillin and 100 μg/ml streptomycin.
Inhibition of eIF4E phosphorylation was quantified by Western Blot. Cells were seeded in 60 mm plates (700,000 cells for 24 h, 500,000 cells for 48 h and 300,000 cells for 72 h).
After 24 h, the treatments were added. The stocks of compounds were prepared in […] at a concentration 200 times more concentrated than the treatment concentration. Thus, in all cases, the final concentration of DMSO in the medium was 0.5%.
After incubation, proteins were removed and Western Blot was performed. On ice, the plates were washed with PBS and the cells were lysed with 60 μl lysis buffer (50 mM Tris, 200 mM NaCl, 5 mM EDTA, 0.1% Triton 100×, pH 7.5 supplemented with protease inhibitors (EDTA-free Protease Inhibitor Cocktail Set III, Calbiochem) and phosphatase inhibitors (Phosphatase Inhibitor Cocktail Set II, Calbiochem)). The samples were centrifuged at 15,000 g and the supernatant was quantified by the Bradford method. The samples were all diluted to the same concentration with a lysis buffer and loading buffer (Laemmli buffer) and denatured for 5 minutes at 95° C. The proteins were separated on a 12% […] gel (20 μg were loaded per well) and transferred to a PDVF (Polyvinylidene fluoride) membrane. β-Actin antibodies, abbreviated as “actin” in the figures (Calbiochem), eIF4E (anti-rabbit, Cell signalling), and phosphorylated-eIF4E (S209) (anti-rabbit, Cell signalling) in 5% BSA in TBST were used to study the activity of the compounds. Selectivity against MNK was analysed with ERK, p-ERK, MNK1, p-MNK1, 4EBP1 and p-4EBP1 antibodies.

[7] = tested on: IMR90 cells, non-transformed fibroblasts; assay: cell growth (crystal violet) and cell death (PI/Hoechst) in IMR90 cells; type: cell-based
Procedure: as §5
Knock-out mice of the EB1 target kinases MNK1 and MNK2 are viable (Ueda et al 2004; PMID: 15254222). […] Cell growth was measured by crystal violet assay. Cell death was determined by Propidium Iodid (PI)/Hoechst staining and the ratio of dead cell (PI positive) among all analyzed cells (Hoechst) was determined. Cis-platin treatment was included as positive control. […] Minimal side effects for patients are therefore predictable.

Nc1n[nH]c2nc(-c3ccccc3)cc(-c3ccccc3)c12 [EB1, 4,6-diphenyl-1H-pyrazolo[3,4-b]pyridin-3-amine]
IC50 [1]: 700 nM
mode of MNK1/2 inhibition [2]: non-ATP competitive
effect of co-treatment on cell viability [3]: synergistic effect
remaining activity at 10 µM [4]: 52%
inhibition of eIF4E phosphorylation ([5]; 22Rv1, 24 h EB1 treatment): Dose dependent inhibition
levels of AR, AR-V7 and eIF4E phosphorylation ([5]; EB1 alone): reduction of AR, its splice variant AR-V7 and eIF4E phosphorylation
levels of AR, AR-V7 and eIF4E phosphorylation ([5]; combination of EB1 and enzalutamide): more pronounced
EC50 ([6]; Homo sapiens, MDA-MB-231 triple-negative breast cancer cells, read-out: in vitro EC50, inhibition of eIF4E phosphorylation): ~1500 nM
concentration at which eIF4E phosphorylation is significantly reduced ([6]; MDA-MB-231): greater than 2.5 μM
concentration giving almost complete inhibition of eIF4E phosphorylation ([6]; MDA-MB-231): ≥ 2.5 µM
duration of the effect on eIF4E phosphorylation ([6]; MDA-MB-231): at least 72 h
reversal of the increased eIF4E phosphorylation caused by doxorubicin ([6]; MDA-MB-231, 5 μM EB1 with doxorubicin): can be reversed
effect on components of the signalling pathway (p-MNK, ERK, 4E-BP1) ([6]; MDA-MB-231, Western Blot): does not affect any of the components of the signalling pathway
cell death ([7]; IMR90, PI/Hoechst staining): does not induce cell death
cell growth arrest ([7]; IMR90, crystal violet): does not cause significant cell growth arrest
